# ChEMBL document CHEMBL1201862, “PubChem BioAssay data set” (2004)
#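 Tested at 5 concentrations; 48 h exposure; 96-well plates; endpoints linearly interpolated, else capped at highest concentration. GI50 = concentration required for 50% inhibition of growth.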 Active and inactive are the calls of the source. Rule as the data show it: active = GI50 up to about 1.1 µM and inactive = higher.
# Tests used:
# Assay in all cases: NCI-60 cell line screen, 48 h
# A498 = system: A498
# A549 = system: A549
# BT-549 = system: BT-549
# DU-145 = system: DU-145
# HOP-62 = system: HOP-62
# HOP-92 = system: HOP-92
# Hs-578T = system: Hs-578T
# K562 = system: K562
# M14 = system: M14
# MDA-MB-231 = system: MDA-MB-231
# NCI-H226 = system: NCI-H226
# OVCAR-4 = system: OVCAR-4
# OVCAR-8 = system: OVCAR-8
# SF-295 = system: SF-295
# SK-MEL-5 = system: SK-MEL-5
# SK-OV-3 = system: SK-OV-3
# SN12C = system: SN12C
# NCI-H460 = system: NCI-H460
SMILES,GI50 (A498),GI50 (A549),GI50 (BT-549),GI50 (DU-145),GI50 (HOP-62),GI50 (HOP-92),GI50 (Hs-578T),GI50 (K562),GI50 (M14),GI50 (MDA-MB-231),GI50 (NCI-H226),GI50 (OVCAR-4),GI50 (OVCAR-8),GI50 (SF-295),GI50 (SK-MEL-5),GI50 (SK-OV-3),GI50 (SN12C),GI50 (NCI-H460)
Cc1csc(NCc2ccc(Cl)cc2)n1,40.1 µM (inactive),40.5 µM (inactive),62.7 µM (inactive),> 100 µM (inactive),> 100 µM (inactive),23.4 µM (inactive),54.7 µM (inactive),45.7 µM (inactive),45.7 µM (inactive),40.6 µM (inactive),33.8 µM (inactive),37 µM (inactive),56.2 µM (inactive),39.8 µM (inactive),23.7 µM (inactive),> 100 µM (inactive),81.5 µM (inactive),
CNC(=O)c1ccc(C(=O)NCCCCCN(O)C(=O)CCC(=O)NCCCCCN(O)C(=O)CCC(=O)NCCCCCN(O)C(C)=O)c(O)c1O,> 100 µM (inactive),54.7 µM (inactive),56.6 µM (inactive),55.1 µM (inactive),21.4 µM (inactive),37.4 µM (inactive),> 100 µM (inactive),65 µM (inactive),59.8 µM (inactive),53.7 µM (inactive),> 100 µM (inactive),1.07 µM (active),30.8 µM (inactive),42.6 µM (inactive),33.7 µM (inactive),45.4 µM (inactive),94.6 µM (inactive),36.1 µM (inactive)
C#CCOC(=O)c1ccccc1OC(C)=O,> 100 µM (inactive),,> 100 µM (inactive),> 100 µM (inactive),> 100 µM (inactive),> 100 µM (inactive),> 100 µM (inactive),> 100 µM (inactive),> 100 µM (inactive),> 100 µM (inactive),> 100 µM (inactive),> 100 µM (inactive),> 100 µM (inactive),> 100 µM (inactive),> 100 µM (inactive),> 100 µM (inactive),> 100 µM (inactive),> 100 µM (inactive)
Cc1ccc([N+](=O)[O-])cc1S(=O)(=O)Nc1ccc(C2=NN(S(=O)(=O)c3cc([N+](=O)[O-])ccc3C)C(c3cccs3)C2)cc1 (centres undefined),13.8 µM (inactive),32.7 µM (inactive),38.6 µM (inactive),51.3 µM (inactive),30.1 µM (inactive),33.7 µM (inactive),12.8 µM (inactive),24.2 µM (inactive),36 µM (inactive),24.9 µM (inactive),52.7 µM (inactive),37.4 µM (inactive),50.2 µM (inactive),21.2 µM (inactive),29 µM (inactive),24.5 µM (inactive),33.7 µM (inactive),28.2 µM (inactive)
Sc1nnc(SCc2ccccc2Cl)c2nc[nH]c12,> 100 µM (inactive),> 100 µM (inactive),> 100 µM (inactive),> 100 µM (inactive),> 100 µM (inactive),> 100 µM (inactive),> 100 µM (inactive),> 100 µM (inactive),> 100 µM (inactive),> 100 µM (inactive),> 100 µM (inactive),> 100 µM (inactive),> 100 µM (inactive),> 100 µM (inactive),> 100 µM (inactive),> 100 µM (inactive),> 100 µM (inactive),> 100 µM (inactive)
N#CCCN(CCCN(CCCN(C(=O)Nc1ccccc1)c1ccccc1)C(=O)Nc1ccccc1)C(=O)Nc1ccccc1,> 8.75 µM (inactive),> 8.75 µM (inactive),> 8.75 µM (inactive),> 8.75 µM (inactive),> 8.75 µM (inactive),20.2 µM (inactive),73.5 µM (inactive),> 8.75 µM (inactive),> 8.75 µM (inactive),> 8.75 µM (inactive),31.4 µM (inactive),> 100 µM (inactive),> 8.75 µM (inactive),> 8.75 µM (inactive),> 8.75 µM (inactive),> 8.75 µM (inactive),> 8.75 µM (inactive),> 8.75 µM (inactive)
O=C(/C=C/c1ccc(OCc2cccc(Cl)c2)cc1)NO,12.1 µM (inactive),18.9 µM (inactive),24.8 µM (inactive),15.3 µM (inactive),18.2 µM (inactive),14.1 µM (inactive),35 µM (inactive),16.6 µM (inactive),21 µM (inactive),19.7 µM (inactive),14 µM (inactive),13.5 µM (inactive),6.31 µM (inactive),17.9 µM (inactive),16.4 µM (inactive),17.9 µM (inactive),20.6 µM (inactive),15.9 µM (inactive)
O=C1Nc2ccccc2/C1=C\c1c(Cl)[nH]c2ccccc12,1.15 µM (inactive),1.23 µM (inactive),0.832 µM (active),3.35 µM (inactive),0.787 µM (active),0.48 µM (active),0.409 µM (active),0.364 µM (active),0.873 µM (active),1.45 µM (inactive),3.65 µM (inactive),,2.42 µM (inactive),0.287 µM (active),0.414 µM (active),0.32 µM (active),2.85 µM (inactive),0.597 µM (active)
CC(=O)O[C@H]1CC[C@@]2(C)C(=CC[C@@H]3[C@@H]2CC[C@](C)(c2nnc(C)o2)[C@H]3CC#N)C1,> 100 µM (inactive),> 100 µM (inactive),> 100 µM (inactive),> 100 µM (inactive),> 100 µM (inactive),> 100 µM (inactive),0.0735 µM (active),> 100 µM (inactive),> 100 µM (inactive),> 100 µM (inactive),> 100 µM (inactive),> 100 µM (inactive),> 100 µM (inactive),> 100 µM (inactive),> 100 µM (inactive),> 100 µM (inactive),> 100 µM (inactive),
CCNC(=O)c1c(O)nc2ccccc2c1O,> 100 µM (inactive),55.6 µM (inactive),78.2 µM (inactive),80.9 µM (inactive),64.9 µM (inactive),75.3 µM (inactive),40.5 µM (inactive),39.8 µM (inactive),,67.5 µM (inactive),> 100 µM (inactive),70.6 µM (inactive),> 100 µM (inactive),80.9 µM (inactive),43.5 µM (inactive),,67.6 µM (inactive),34.9 µM (inactive)
COc1c2cc([N+](=O)[O-])cc1CN(C(=O)C(F)(F)F)CCOCCN(C(=O)C(F)(F)F)C2,> 100 µM (inactive),> 100 µM (inactive),70.6 µM (inactive),> 100 µM (inactive),> 100 µM (inactive),> 100 µM (inactive),> 100 µM (inactive),,> 100 µM (inactive),> 100 µM (inactive),> 100 µM (inactive),> 100 µM (inactive),> 100 µM (inactive),> 100 µM (inactive),> 100 µM (inactive),> 100 µM (inactive),> 100 µM (inactive),> 100 µM (inactive)
Nc1ccc(-c2nnc(-c3c(Cl)c(Cl)c(Cl)c(Cl)c3-c3nc4cc(C(=O)c5ccccc5)ccc4[nH]3)o2)cc1,18.5 µM (inactive),28.1 µM (inactive),24.6 µM (inactive),24.8 µM (inactive),21.6 µM (inactive),27.2 µM (inactive),28 µM (inactive),8 µM (inactive),16.6 µM (inactive),19.3 µM (inactive),18 µM (inactive),24.5 µM (inactive),43.8 µM (inactive),19.5 µM (inactive),11.1 µM (inactive),26.1 µM (inactive),16.8 µM (inactive),
Cn1c(-c2ccc[se]2)ccc1-c1ccc(CO)[se]1,0.0389 µM (active),52.6 µM (inactive),27.7 µM (inactive),35.9 µM (inactive),,7.41 µM (inactive),33 µM (inactive),0.159 µM (active),> 66.2 µM (inactive),32.6 µM (inactive),0.302 µM (active),0.0392 µM (active),33.1 µM (inactive),31.3 µM (inactive),24.9 µM (inactive),17.1 µM (inactive),> 76.6 µM (inactive),0.0206 µM (active)
O=[N+]([O-])c1cc(C(F)(F)F)ccc1S(=O)(=O)N[C@@H]1CCCC[C@H]1NS(=O)(=O)c1ccc(C(F)(F)F)cc1[N+](=O)[O-],5.43 µM (inactive),4.16 µM (inactive),2.23 µM (inactive),4.22 µM (inactive),7.1 µM (inactive),1.98 µM (inactive),2.48 µM (inactive),,2.75 µM (inactive),2.77 µM (inactive),7.52 µM (inactive),2.61 µM (inactive),2.86 µM (inactive),2.86 µM (inactive),3.58 µM (inactive),13.6 µM (inactive),3.45 µM (inactive),3.57 µM (inactive)
COc1ccc(C2C(C#N)=C(S)N(C3OC(CO)C(O)C(O)C3O)C(c3ccccc3)=C2C(C)=O)cc1 (centres undefined),> 100 µM (inactive),> 100 µM (inactive),> 100 µM (inactive),> 100 µM (inactive),67.1 µM (inactive),46.1 µM (inactive),45.3 µM (inactive),43.6 µM (inactive),65 µM (inactive),95.5 µM (inactive),> 100 µM (inactive),> 10 µM (inactive),63.7 µM (inactive),> 100 µM (inactive),25.1 µM (inactive),,> 100 µM (inactive),88.1 µM (inactive)
